# Test results: patent US10351566B2, “Therapeutic compounds for pain and synthesis thereof” (priority 2015, dated 2019)
# pIC50: −log10 of the molar value. Like-named read-outs stand apart in the source and are kept apart here. Marks after values point to notes of the source that are not given here.
# Columns and labels:
# hERG = hERG (Homo sapiens, UniProt Q12809); test: hERG in vitro safety pharmacology
# Protocol: The IC50 for hERG was greater than 10 μM. A generally accepted safety margin against hERG and other important cardiac targets is ≥30 (a safety margin is calculated as: IC50/Cmax, free or EC50/Cmax, free).
# [1] = type: in vitro ADME, mouse, rat, human
# Protocol: Metabolic stability studies in mouse, rat and human liver microsomes were performed at a compound concentration of 1 μM.
# A total of five metabolites were detected in all three species. […] Due to the similarity in the plasma stability of the compound in the mouse and the human plasma, and toxicology studies would preferably be performed in the mouse.
# 14-3-3σ = 14-3-3σ expression in plasma and hind paw skin of Taxol dosed mice (Somascan); type: in vivo
# Protocol: The Taxol model was used in order to investigate the MoA of Formula 1.
# Animals showing chemotherapy-induced pain following repeated doses of taxol were treated with either vehicle gabapentin or Formula 1. Plasma was collected following the first dose of the test items and after 7 days of daily treatment. Skin from hind paws were also collected following 7 days of daily treatment. The tissues were processed and the expression levels on 1310 proteins were assessed (Somascan provided by SomaLogic, Inc., Boulder, Colo.).
# Three statistical methods were used to identify protein expression that discriminated between Formula 1, gabapentin and vehicle on day 8, following a single dose, and on study day 14 following multiple dosing.
# A comparison between day 8 and day 14 within each group was also performed. All methods were conducted on scaled data. First, a Student's t-test was performed in order to compare proteins between groups. Second, the LASSO (least absolute shrinkage and selection operator) method was applied. This is a regression technique that simultaneously performs variable selection and model coefficient modification. These models used group as the outcome and all 1310 proteins as the starting predictors. LASSO was then tuned to shrink unimportant coefficients to zero, leaving approximately the ten most important predictors of (or discriminators between) the groups. […]
# [2] = type: in vivo, mice
# Protocol: At 4 days, vehicle-treated animals gained approximately 1% body weight, going from 25.24±0.74 g to 25.50±0.64 g. Formula 1 treated animals went from 25.28±1.04 g to 25.82±1.25 g.
# Animals treated with Formula 1 at a dose of 10 mg/kg IP for a period of 31 days gained […] body weight (changing from 21.44±0.18 g to 25.49±0.46 g). Vehicle treated animals gained […] body weight (changing from 21.45±0.19 g to 23.97±0.62 g; p=0.07), therefore no significant changes were found.
# [3] = system: Taxol-induced neuropathic pain; test: Taxol-induced neuropathic pain in mice, SC administration; type: in vivo
# Protocol: Study outline in brief: Animals were dosed daily with Taxol for a period of 8 consecutive days (Day 0 to Day 7). On study day 8, prior to drug dosing, the decrease in withdrawal force (tactile allodynia) was verified by applying the von Frey test. After assigning the animals to their treatment groups, the animals were treated daily for a period of 5 days with either vehicle or Formula 1 at different doses. Gabapentin at a dose of 150 mg/kg was dosed only on days of testing (day 8 and day 14).
# Response to heat stimuli was assessed using the hotplate apparatus set at 50ΥC. […] At baseline prior to Taxol dosing, the animals' response time to heat was 28.10±1.60 sec (vehicle-treated group). […] However, it is interesting to note that the beneficial activity of Formula 1 on heat hyperalgesia was more noticeable on study day 14, following repeated daily dosing of the compound, than on study day 8 following a single dose (Table 6).
# [4] = type: in vivo; conditions: mice
# Protocol: Fecal excretion of the parent compound was evaluated following oral administration of Formula 1 in mice at a dose of 50 mg/kg and intravenous administration at a dose of 5 mg/kg. Peak concentrations in feces were 150 μg/g and 33 μg/g from oral and intravenous dosing, respectively. These peak concentrations were generally achieved within 1 h post-oral dosing and within 5 min post-intravenous doing. The concentrations remained high (greater than 1 μg/g) even after 8 h post-dosing by both administration routes (FIG. 18).
# Sequence of hERG (Q12809 whole entry): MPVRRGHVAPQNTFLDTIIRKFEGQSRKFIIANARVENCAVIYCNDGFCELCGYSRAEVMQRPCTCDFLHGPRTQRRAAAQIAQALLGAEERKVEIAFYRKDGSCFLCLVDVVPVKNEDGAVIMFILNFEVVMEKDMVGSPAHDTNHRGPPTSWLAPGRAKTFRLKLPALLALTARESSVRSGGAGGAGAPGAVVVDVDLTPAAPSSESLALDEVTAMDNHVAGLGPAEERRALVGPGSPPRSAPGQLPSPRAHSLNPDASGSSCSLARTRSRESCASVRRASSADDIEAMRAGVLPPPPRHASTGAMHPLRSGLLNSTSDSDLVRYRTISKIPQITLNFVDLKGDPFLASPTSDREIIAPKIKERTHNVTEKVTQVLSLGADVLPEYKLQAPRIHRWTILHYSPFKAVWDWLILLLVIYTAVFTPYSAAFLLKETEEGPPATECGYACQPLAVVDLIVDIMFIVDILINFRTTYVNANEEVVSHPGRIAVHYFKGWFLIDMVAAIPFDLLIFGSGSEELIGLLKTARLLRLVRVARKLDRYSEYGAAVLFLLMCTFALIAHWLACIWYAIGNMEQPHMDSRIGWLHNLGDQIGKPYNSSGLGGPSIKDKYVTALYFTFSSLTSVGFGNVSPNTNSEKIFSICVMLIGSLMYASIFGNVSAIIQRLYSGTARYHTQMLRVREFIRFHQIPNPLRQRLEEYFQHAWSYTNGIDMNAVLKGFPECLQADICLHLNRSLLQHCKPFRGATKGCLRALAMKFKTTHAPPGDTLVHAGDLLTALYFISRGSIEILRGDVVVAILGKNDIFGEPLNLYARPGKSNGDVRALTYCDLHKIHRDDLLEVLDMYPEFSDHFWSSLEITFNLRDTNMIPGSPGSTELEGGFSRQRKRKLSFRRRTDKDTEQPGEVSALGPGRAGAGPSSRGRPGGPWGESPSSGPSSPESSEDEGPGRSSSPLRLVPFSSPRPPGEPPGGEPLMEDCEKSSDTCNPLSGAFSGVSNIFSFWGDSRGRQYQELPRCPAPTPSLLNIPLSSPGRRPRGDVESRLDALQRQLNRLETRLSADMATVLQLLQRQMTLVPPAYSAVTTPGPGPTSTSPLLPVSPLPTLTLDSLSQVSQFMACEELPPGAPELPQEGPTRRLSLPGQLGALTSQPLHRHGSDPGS
compound,measurement,setting,value
"CC(C)(C)C(=O)O[C@@H]1[C@@H]2[C@H]3C[C@H](C[C@@H]1N3Cc1ccccn1)CN2C(=O)CC(F)(F)F (relative stereo) [Formula 1, (2S*,3S*,3aS*,6R*,7aR*)-1-(pyridin-2-ylmethyl)-4-(3,3,3-trifluoropropanoyl)octahydro-1H-2,6-methanopyrrolo[3,2-b]pyridin-3-yl pivalate]",pIC50,hERG,< 5.00
same,unique human metabolites,[1],No unique human metabolites were detected
same,total metabolites detected,[1]; in all three species,five
same,major metabolic pathways,"[1]; mouse, rat and human liver microsomes",N-dealkylation and oxidation
same,14-3-3σ expression in the skin,"14-3-3σ; hind plantar skin, study day 14, repeated dosing, vs. vehicle",significantly reduced
same,relative decrease in stratifin (14-3-3σ),"14-3-3σ; plasma, day 8 to day 14, daily treatment, Taxol dosed mice, vs. naïve animals",~50%
same,body weight at end,[2]; 10 mg/kg IP for 31 days,25.49 ± 0.46 g
same,body weight at start,[2]; 10 mg/kg IP for 31 days,21.44 ± 0.18 g
same,body weight gained,[2]; 10 mg/kg IP for 31 days,15.64%
same,body weight at 4 days,[2]; 4-day observation,25.82 ± 1.25 g
same,body weight at start,[2]; 4-day observation,25.28 ± 1.04 g
same,effect on body weight gain,"[2]; naïve mice, dosing for 31 days",did not affect body weight gain
same,"response time to heat (50° C.), Mean","[3]; SC 1 mg/kg, Day 0 Pre-Taxol",28.8 s
same,"response time to heat (50° C.), Mean","[3]; SC 1 mg/kg, Day 8, 1 h",11.9 s
same,"response time to heat (50° C.), Mean","[3]; SC 1 mg/kg, Day 8, 2 h",22.8* sec
same,"response time to heat (50° C.), Mean","[3]; SC 1 mg/kg, Day 8, 4 h",18.9* sec
same,"response time to heat (50° C.), Mean","[3]; SC 1 mg/kg, Day 8, 6 h",18.5* sec
same,"response time to heat (50° C.), Mean","[3]; SC 1 mg/kg, Day 8 Pre-dosing",11.4 s
same,"response time to heat (50° C.), Mean","[3]; SC 1 mg/kg, Day 14, 1 h",14.9* sec
same,"response time to heat (50° C.), Mean","[3]; SC 1 mg/kg, Day 14, 2 h",24.6* sec
same,"response time to heat (50° C.), Mean","[3]; SC 1 mg/kg, Day 14, 4 h",24.2* sec
same,"response time to heat (50° C.), Mean","[3]; SC 1 mg/kg, Day 14, 6 h",22.0* sec
same,"response time to heat (50° C.), Mean","[3]; SC 1 mg/kg, Day 14 Pre-dosing",15.8* sec
same,"response time to heat (50° C.), Mean","[3]; SC 1 mg/kg, Day 17, No dosing",12.4 s
same,"response time to heat (50° C.), Mean","[3]; SC 3 mg/kg, Day 0 Pre-Taxol",28.6 s
same,"response time to heat (50° C.), Mean","[3]; SC 3 mg/kg, Day 8, 1 h",15.7 s
same,"response time to heat (50° C.), Mean","[3]; SC 3 mg/kg, Day 8, 2 h",19.4 s
same,"response time to heat (50° C.), Mean","[3]; SC 3 mg/kg, Day 8, 4 h",14.8 s
same,"response time to heat (50° C.), Mean","[3]; SC 3 mg/kg, Day 8, 6 h",14.1 s
same,"response time to heat (50° C.), Mean","[3]; SC 3 mg/kg, Day 8 Pre-dosing",12.2 s
same,"response time to heat (50° C.), Mean","[3]; SC 3 mg/kg, Day 14, 1 h",18.4* sec
same,"response time to heat (50° C.), Mean","[3]; SC 3 mg/kg, Day 14, 2 h",24.8* sec
same,"response time to heat (50° C.), Mean","[3]; SC 3 mg/kg, Day 14, 4 h",23.6* sec
same,"response time to heat (50° C.), Mean","[3]; SC 3 mg/kg, Day 14, 6 h",20.6* sec
same,"response time to heat (50° C.), Mean","[3]; SC 3 mg/kg, Day 14 Pre-dosing",19.7 s
same,"response time to heat (50° C.), Mean","[3]; SC 3 mg/kg, Day 17, No dosing",12.2 s
same,"response time to heat (50° C.), Mean","[3]; SC 10 mg/kg, Day 0 Pre-Taxol",28.5 s
same,"response time to heat (50° C.), Mean","[3]; SC 10 mg/kg, Day 8, 1 h",15.7 s
same,"response time to heat (50° C.), Mean","[3]; SC 10 mg/kg, Day 8, 2 h",17.8* sec
same,"response time to heat (50° C.), Mean","[3]; SC 10 mg/kg, Day 8, 4 h",15.8 s
same,"response time to heat (50° C.), Mean","[3]; SC 10 mg/kg, Day 8, 6 h",14.3 s
same,"response time to heat (50° C.), Mean","[3]; SC 10 mg/kg, Day 8 Pre-dosing",11.2 s
same,"response time to heat (50° C.), Mean","[3]; SC 10 mg/kg, Day 14, 1 h",18.5* sec
same,"response time to heat (50° C.), Mean","[3]; SC 10 mg/kg, Day 14, 2 h",18.7* sec
same,"response time to heat (50° C.), Mean","[3]; SC 10 mg/kg, Day 14, 4 h",19.3* sec
same,"response time to heat (50° C.), Mean","[3]; SC 10 mg/kg, Day 14, 6 h",15.5* sec
same,"response time to heat (50° C.), Mean","[3]; SC 10 mg/kg, Day 14 Pre-dosing",14.5 s
same,"response time to heat (50° C.), Mean","[3]; SC 10 mg/kg, Day 17, No dosing",10.4 s
same,response time to heat (hotplate 50° C.),"[3]; Taxol mice, SC, 10 mg/kg, 3 mg/kg and 1 mg/kg",active in increasing the response time
same,"analgesic activity (withdrawal force, von Frey)","[3]; Taxol mice, SC, dose as low as 1 mg/kg",profound analgesic activity
same,Dose of maximum activity,"[3]; Taxol model, SC, mice",1 mg/kg
same,Duration of activity at maximum effect,"[3]; Taxol model, SC, mice",3 days
same,Level of activity (% of maximum effect-baseline),"[3]; Taxol model, SC, mice",100%
same,concentration in feces after 8 h post-dosing,[4]; intravenous 5 mg/kg,greater than 1 μg/g
same,peak concentration in feces,[4]; intravenous 5 mg/kg,33 µg/g
same,time to peak concentration in feces,[4]; intravenous 5 mg/kg,≤ 5 min
same,concentration in feces after 8 h post-dosing,[4]; oral 50 mg/kg,greater than 1 μg/g
same,peak concentration in feces,[4]; oral 50 mg/kg,150 µg/g
same,time to peak concentration in feces,[4]; oral 50 mg/kg,≤ 60 min
